How the values were obtained:
Assay type in all cases: cell-based
[1] = system: cortisol; experiment: Cortisol produced by skin explants stimulated by ACTH + 42° C. (ELISA); settings: Metyrapone 1 mM
Description: Skin explants were treated topically with a formulation (cream) containing 1% tea oil concentrate, or its placebo, or treated systemically (in the culture medium) with 0.001% tea oil concentrate and the positive reference metyrapone at 1 mM. The explants were incubated for 24 hours then stressed with 0.6 μM ACTH (Adreno Corticotropic Hormone), a hormone that induces cortisol production. This stress was coupled with explant culture in a 42° C. incubator to potentiate the increase in cortisol production. The explants were again treated with topical products or the active ingredient and the positive reference systemically. After 24 hours of incubation, the culture media were recovered and an ELISA assay for cortisol was performed. The results were statistically analyzed by Student's test t.

[2] = system: interleukin-1 alpha (IL-1 alpha); experiment: IL-1 alpha produced by normal human keratinocytes under PMA-induced inflammatory stress (ELISA); settings: Dexamethasone 0.1 μM, PMA 10 μg/ml
Description: (§1) The anti-inflammatory activity of tea oil concentrate (THE) was investigated by assaying interleukin-1 alpha (IL-1 alpha) produced by keratinocytes in response to pro-inflammatory stress induced by PMA (Phorbol-Myristate-Acetate) in a normal human keratinocyte model, in a reconstructed epidermis model subjected to PMA stress, as well as in a reconstructed epidermis model subjected to SDS (Sodium Dodecyl Sulfate) stress.
Normal human keratinocytes were pre-incubated for 24 hours in the presence of 0.001%, 0.005% or 0.01% tea tree oil concentrate or 0.1 μM dexamethasone, an anti-inflammatory reference. The cells were then stimulated by overnight treatment in the presence of 10 μg/mL PMA (Phorbol-Myristate-Acetate).
At the end of treatment, IL-1 alpha produced was quantified by ELISA assay in culture supernatants.
The results were statistically analyzed by one-way analysis of variance (ANOVA), followed by Tukey post-test.

[3] = system: Interleukin-1 alpha; experiment: IL-1 alpha produced by reconstructed epidermis stimulated by PMA; settings: Dexamethasone 1 μM systemically; PMA 0.5 μg/mL
Description: as §1
(§2) Reconstructed epidermis were treated topically with a formulation (cream) containing 1% tea tree oil concentrate or its placebo, or systemically with 1 μM dexamethasone, an anti-inflammatory reference. After 24 hours of pre-incubation, epidermis were stimulated with 0.5 μg/mL of PMA and incubated again for 24 hours.
Culture subnatants were collected then IL-1 alpha assay was performed.
(§3) The results were statistically analyzed using ANOVA followed by Tukey's test.
as §2, with “μg/ml” for “μg/mL”, “hours. […]” for “hours.”

[4] = system: CXCL1, IL8, IL6, CCL2, SOD2, HAS2, MMP1, MMP3 gene expression in normal human dermal fibroblasts; experiment: Inflamm'aging model: gene expression in fibroblasts incubated with conditioned media of PMA-stimulated reconstructed epidermis; settings: Dexa. 1 μM; control = 100
Description: Tea oil concentrate was evaluated in an in vitro model reproducing the process of “inflammaging”: inflammation, represented by the stimulation of IL-1 alpha production, is induced on reconstructed epidermis. The conditioned media of these reconstructed epidermis are then applied to fibroblasts and the expression of dermal markers, altered by IL1a produced by the epidermis, is evaluated.
as §2, with “μg/ml” for “μg/mL”
Culture subnatants were collected, IL-1 alpha assay was performed on the one hand, and on the other hand, these subnatants (conditioned media) were deposited on cultures of normal human dermal fibroblasts.
After 24 hours of incubation of fibroblasts in the presence of conditioned media, the expression of markers of interest was assessed by real-time quantitative PCR.
as §3

[5] = system: dermal matrix markers (Collagen III, Fibrillin 1); experiment: Gene expression of dermal matrix markers in normal human dermal fibroblasts (real-time PCR); settings: TGFβ 1 5 ng/ml, 48 hours
Description: The effect of tea oil concentrate on the expression of dermal matrix markers was evaluated in cultured normal human dermal fibroblasts.
Normal human dermal fibroblasts were incubated for 48 hours in the presence of 0.001% and 0.005% tea oil concentrate or 5 ng/ml TGFβ1, the positive reference of the test.
Gene expression of Collagen Ill and Fibrillin 1 was evaluated by quantitative real-time PCR. The results were statistically analyzed by one-way analysis of variance (ANOVA), followed by Dunnett's post-test.

[6] = ACTH 0.6 μM + 42° C., Table 16 (systemic series)

CC(C)(C(=O)c1cccnc1)c1cccnc1 [Metyrapone, metyrapone]
Cortisol % Protection [1, 6]: 70%
Cortisol Relative quantification [1, 6]: 1.08 ± 0.12
Cortisol Relative quantification ([1]; ACTH 0.6 μM + 42° C., Table 17 (topical series)): 1.08 ± 0.12
Cortisol % Protection (vs ACTH/42° C.) ([1]; Table 17 (topical series)): 73%

C[C@@H]1C[C@H]2[C@@H]3CCC4=CC(=O)C=C[C@]4(C)[C@@]3(F)[C@@H](O)C[C@]2(C)[C@@]1(O)C(=O)CO [Dexamethasone, dexamethasone]
IL-1 alpha ([2]; 24 h pre-incubation): 66.6 ± 0.5 pg/mL
Protection (%) [2]: 74%
% Protection [3]: 48%
Interleukin-1 alpha [3]: 334 ± 41 pg/mL
CCL2 expression level in relative quantity [4]: 193
CXCL1 expression level in relative quantity [4]: 1503
HAS2 expression level in relative quantity [4]: 104
IL6 expression level in relative quantity [4]: 305
IL8 expression level in relative quantity [4]: 1350
MMP1 expression level in relative quantity [4]: 52
MMP3 expression level in relative quantity [4]: 74
SOD2 expression level in relative quantity [4]: 354

TGFβ 1: the positive reference of the test
Collagen III gene expression (Relative Quantity) [5]: 1.55 ± 0.25
Fibrillin 1 gene expression (Relative Quantity) [5]: 1.53 ± 0.18
Collagen III gene expression % induction ([5]; vs control cells): +78% p < 0.05
Fibrillin 1 gene expression % induction ([5]; vs control cells): +74% p < 0.05
